Assay results from ChEMBL document CHEMBL2062364, “Discovery and optimization of new benzimidazole- and benzoxazole-pyrimidone selective PI3Kβ inhibitors for the treatment of phosphatase and TENsin homologue (PTEN)-deficient cancers” (J Med Chem, 2012).

Legend:
[1] = Plasma concentration in SCID mouse xenografted with PTEN-deficient human PC3 cells at 300 mg/kg, po BID measured after 3 hrs; type: ADME, organism-based, PC-3; design: dose 300 mg/kg, route oral
[2] = Plasma concentration in SCID mouse xenografted with PTEN-deficient human PC3 cells at 300 mg/kg, po BID measured after 6 hrs; type: ADME, organism-based, PC-3; design: dose 300 mg/kg, route oral
Nucleic Acid = assay: Ratio of drug uptake in plasma to tumor of SCID mouse xenografted with PTEN-deficient human PC3 cells at 300 mg/kg, po BID measured after 0.5 to 24 hrs; type: ADME, organism-based, PC-3; design: dose 300 mg/kg, route oral; settings: in vivo
Plasma = assay: Plasma concentration in SCID mouse xenografted with PTEN-deficient human PC3 cells at 300 mg/kg, po BID measured after day 1; type: ADME, organism-based, PC-3; design: dose 300 mg/kg, route oral; settings: in vivo
Mus musculus [3] = assay: Toxicity in SCID mouse bearing PTEN-deficient human PC3 cells at 300 mg/kg, po BID for 9 days; type: organism-based, PC-3; design: dose 300 mg/kg, route oral; settings: in vivo, 216 h
Mus musculus [4] = assay: Toxicity in SCID mouse bearing PTEN-deficient human PC3 cells assessed as weight loss at 300 mg/kg, po BID for 9 days; type: organism-based, PC-3; design: dose 300 mg/kg, route oral; settings: in vivo, 216 h
[5] = target: T1, Phosphatidylinositol 4,5-bisphosphate 3-kinase catalytic subunit beta isoform (Homo sapiens, UniProt P42338); assay: Inhibition of human PI3Kbeta-mediated Akt phosphorylation at Ser473 residue expressed in PTEN-deficient human PC3 cells by chemiluminescence assay; type: cell-based, PC-3
T1 sequence (P42338 whole entry, canonical isoform): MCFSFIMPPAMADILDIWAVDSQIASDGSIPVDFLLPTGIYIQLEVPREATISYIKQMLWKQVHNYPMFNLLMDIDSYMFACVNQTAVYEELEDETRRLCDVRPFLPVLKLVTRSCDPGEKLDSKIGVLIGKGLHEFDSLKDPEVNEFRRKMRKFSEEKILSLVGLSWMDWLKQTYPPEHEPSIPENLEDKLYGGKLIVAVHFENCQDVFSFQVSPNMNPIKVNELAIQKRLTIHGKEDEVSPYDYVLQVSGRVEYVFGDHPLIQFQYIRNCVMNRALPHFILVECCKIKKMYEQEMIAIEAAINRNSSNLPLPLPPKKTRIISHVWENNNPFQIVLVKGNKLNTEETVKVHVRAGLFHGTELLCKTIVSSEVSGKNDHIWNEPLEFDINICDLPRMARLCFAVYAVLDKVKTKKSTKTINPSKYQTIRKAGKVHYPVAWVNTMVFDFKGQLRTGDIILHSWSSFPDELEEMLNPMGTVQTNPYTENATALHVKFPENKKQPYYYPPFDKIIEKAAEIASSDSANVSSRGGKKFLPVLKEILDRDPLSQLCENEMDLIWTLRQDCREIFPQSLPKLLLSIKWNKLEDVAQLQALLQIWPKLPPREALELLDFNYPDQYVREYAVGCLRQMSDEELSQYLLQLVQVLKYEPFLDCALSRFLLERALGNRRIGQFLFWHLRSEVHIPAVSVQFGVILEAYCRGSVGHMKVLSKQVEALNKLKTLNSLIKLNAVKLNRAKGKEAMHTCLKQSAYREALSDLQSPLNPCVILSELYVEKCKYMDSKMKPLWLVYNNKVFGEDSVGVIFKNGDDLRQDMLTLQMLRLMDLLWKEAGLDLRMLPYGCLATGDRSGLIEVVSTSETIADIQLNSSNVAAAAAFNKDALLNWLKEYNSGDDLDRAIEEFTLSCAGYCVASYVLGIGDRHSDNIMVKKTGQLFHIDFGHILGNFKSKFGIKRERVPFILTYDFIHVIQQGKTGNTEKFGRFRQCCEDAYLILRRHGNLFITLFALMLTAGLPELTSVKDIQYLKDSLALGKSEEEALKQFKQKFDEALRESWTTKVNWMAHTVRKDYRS

[6] = target: T2, Phosphatidylinositol 4,5-bisphosphate 3-kinase catalytic subunit alpha isoform (Homo sapiens, UniProt P42336); assay: Inhibition of N-terminus poly-His tagged human PI3Kalpha expressed in baculovirus infected insect sf9 cells coexpressing p85alpha using PI(4,5)P2 as substrate preincubated with compound for 15 mins measured after 10 mins by HTRF assay
T2 sequence (P42336 whole entry, canonical isoform): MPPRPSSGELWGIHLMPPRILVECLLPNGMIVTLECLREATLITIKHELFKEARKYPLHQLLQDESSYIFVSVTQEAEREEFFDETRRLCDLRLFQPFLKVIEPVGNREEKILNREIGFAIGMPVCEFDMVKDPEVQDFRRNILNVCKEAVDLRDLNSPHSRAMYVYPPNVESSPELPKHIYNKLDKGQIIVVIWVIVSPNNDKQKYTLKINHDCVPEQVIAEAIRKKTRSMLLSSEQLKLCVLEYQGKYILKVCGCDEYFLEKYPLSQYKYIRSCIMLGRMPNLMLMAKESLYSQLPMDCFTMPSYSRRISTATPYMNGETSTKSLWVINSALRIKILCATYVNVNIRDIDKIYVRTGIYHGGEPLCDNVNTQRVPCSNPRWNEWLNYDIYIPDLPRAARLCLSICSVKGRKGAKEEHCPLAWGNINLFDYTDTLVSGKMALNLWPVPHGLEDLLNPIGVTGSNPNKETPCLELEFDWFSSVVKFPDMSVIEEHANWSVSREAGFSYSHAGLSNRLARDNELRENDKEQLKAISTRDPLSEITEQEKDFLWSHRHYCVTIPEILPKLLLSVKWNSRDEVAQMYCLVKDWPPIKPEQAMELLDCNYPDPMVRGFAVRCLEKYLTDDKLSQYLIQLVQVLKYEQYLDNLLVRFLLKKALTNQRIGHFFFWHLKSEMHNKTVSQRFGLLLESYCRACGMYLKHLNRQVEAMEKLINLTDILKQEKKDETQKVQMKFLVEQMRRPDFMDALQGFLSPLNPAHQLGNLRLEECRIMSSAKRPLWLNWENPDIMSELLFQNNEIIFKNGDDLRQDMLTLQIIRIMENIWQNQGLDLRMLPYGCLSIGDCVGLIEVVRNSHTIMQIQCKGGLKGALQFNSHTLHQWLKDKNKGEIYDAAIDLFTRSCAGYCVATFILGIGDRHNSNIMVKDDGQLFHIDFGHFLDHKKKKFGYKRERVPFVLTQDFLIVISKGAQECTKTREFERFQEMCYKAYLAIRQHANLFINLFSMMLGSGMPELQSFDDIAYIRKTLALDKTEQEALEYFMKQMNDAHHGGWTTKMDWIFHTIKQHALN

[7] = target: T1, Phosphatidylinositol 4,5-bisphosphate 3-kinase catalytic subunit beta isoform; assay: Inhibition of N-terminus poly-His tagged human PI3Kbeta expressed in baculovirus infected insect […] cells coexpressing p85alpha using PI(4,5)P2 as substrate preincubated with compound for 15 mins measured after 10 mins by HTRF assay
[8] = target: T3, Phosphatidylinositol 4,5-bisphosphate 3-kinase catalytic subunit gamma isoform (Homo sapiens, UniProt P48736); assay: Inhibition of N-terminus poly-His tagged human PI3Kgamma expressed in baculovirus infected insect sf9 cells using PI(4,5)P2 as substrate preincubated with compound for 15 mins measured after 10 mins by HTRF assay
T3 sequence (P48736 whole entry, canonical isoform): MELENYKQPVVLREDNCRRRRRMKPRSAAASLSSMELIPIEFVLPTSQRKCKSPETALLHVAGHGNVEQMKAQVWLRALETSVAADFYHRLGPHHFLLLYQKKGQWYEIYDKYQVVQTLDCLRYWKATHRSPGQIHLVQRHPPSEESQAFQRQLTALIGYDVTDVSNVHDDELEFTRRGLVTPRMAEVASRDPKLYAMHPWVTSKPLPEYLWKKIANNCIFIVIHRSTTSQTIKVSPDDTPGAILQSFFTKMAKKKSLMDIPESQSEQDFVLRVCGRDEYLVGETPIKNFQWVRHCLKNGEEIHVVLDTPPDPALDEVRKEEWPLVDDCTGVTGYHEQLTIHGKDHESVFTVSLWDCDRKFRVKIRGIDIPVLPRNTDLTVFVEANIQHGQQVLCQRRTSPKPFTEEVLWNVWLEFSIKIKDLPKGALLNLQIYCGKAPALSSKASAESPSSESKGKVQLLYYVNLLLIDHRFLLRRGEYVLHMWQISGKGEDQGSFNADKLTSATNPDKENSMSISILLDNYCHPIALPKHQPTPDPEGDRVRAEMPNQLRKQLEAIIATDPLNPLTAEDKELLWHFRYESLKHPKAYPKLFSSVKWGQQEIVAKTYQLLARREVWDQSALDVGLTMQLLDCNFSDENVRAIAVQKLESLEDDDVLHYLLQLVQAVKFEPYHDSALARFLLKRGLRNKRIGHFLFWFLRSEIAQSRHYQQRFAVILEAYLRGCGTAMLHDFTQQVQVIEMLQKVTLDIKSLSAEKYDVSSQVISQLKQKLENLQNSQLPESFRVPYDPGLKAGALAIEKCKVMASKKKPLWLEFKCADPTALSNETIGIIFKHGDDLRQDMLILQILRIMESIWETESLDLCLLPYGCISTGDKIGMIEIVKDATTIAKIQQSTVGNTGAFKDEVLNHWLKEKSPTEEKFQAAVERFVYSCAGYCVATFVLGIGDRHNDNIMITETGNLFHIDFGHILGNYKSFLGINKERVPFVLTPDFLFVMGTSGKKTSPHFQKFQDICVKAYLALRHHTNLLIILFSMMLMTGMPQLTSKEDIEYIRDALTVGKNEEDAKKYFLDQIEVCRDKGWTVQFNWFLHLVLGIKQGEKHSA

[9] = target: Serine/threonine-protein kinase mTOR (Homo sapiens, UniProt P42345); assay: Inhibition of mTOR
[10] = Inhibition of mTORC2-mediated Akt phosphorylation at Ser473 residue in PTEN-deficient human PC3 cells after 2 hrs by Western blot analysis; type: cell-based; settings: PC-3, 2 h
[11] = target: T1, Phosphatidylinositol 4,5-bisphosphate 3-kinase catalytic subunit beta isoform; assay: Inhibition of human PI3Kbeta-mediated Akt phosphorylation at T308 residue expressed in PTEN-deficient human PC3 cells after 2 hrs by Western blot analysis; type: cell-based, PC-3
[12] = Drug metabolism in human liver microsomes; type: ADME, Microsome; settings: read-out: Drug metabolism
[13] = Drug metabolism in mouse liver microsomes; type: ADME, Microsome; settings: read-out: Drug metabolism
[14] = target: T2, Phosphatidylinositol 4,5-bisphosphate 3-kinase catalytic subunit alpha isoform; assay: Inhibition of human PI3Kalpha-mediated Akt phosphorylation at Ser473 residue expressed in human H460 cells after 0.5 to 2 hrs by Western blot analysis; type: cell-based
[15] = target: T3, Phosphatidylinositol 4,5-bisphosphate 3-kinase catalytic subunit gamma isoform; assay: Inhibition of human PI3Kgamma-mediated Akt phosphorylation at Ser473 residue expressed in mouse RAW264.7 cells after 0.5 to 2 hrs by Western blot analysis; type: cell-based
[16] = C0 in CB17/ICR-Prkdc SCID mouse at 6 mg/kg, iv; type: ADME, organism-based; design: dose 6 mg/kg, route intravenous; settings: in vivo
[17] = AUC (0 to Tlast) in CB17/ICR-Prkdc SCID mouse at 6 mg/kg, iv; type: ADME, organism-based; design: dose 6 mg/kg, route intravenous; settings: plasma
[18] = AUC (0 to infinity) in CB17/ICR-Prkdc SCID mouse at 6 mg/kg, iv; type: ADME, organism-based; design: time infinity, dose 6 mg/kg, route intravenous; settings: plasma
[19] = Clearance in CB17/ICR-Prkdc SCID mouse at 6 mg/kg, iv; type: ADME, organism-based; design: dose 6 mg/kg, route intravenous; settings: in vivo
[20] = Cmax in CB17/ICR-Prkdc SCID mouse at 10 mg/kg, po; type: ADME, organism-based; design: dose 10 mg/kg, route oral; settings: in vivo
[21] = Tmax in CB17/ICR-Prkdc SCID mouse at 10 mg/kg, po; type: ADME, organism-based; design: dose 10 mg/kg, route oral; settings: in vivo
[22] = AUC (0 to Tlast) in CB17/ICR-Prkdc SCID mouse at 10 mg/kg, po; type: ADME, organism-based; design: dose 10 mg/kg, route oral; settings: plasma
Mus musculus [23] = assay: Tlast in CB17/ICR-Prkdc SCID mouse at 10 mg/kg, po; type: ADME, organism-based; design: dose 10 mg/kg, route oral; settings: in vivo
[24] = Terminal half life in CB17/ICR-Prkdc SCID mouse at 10 mg/kg, po; type: ADME, organism-based; design: dose 10 mg/kg, route oral; settings: in vivo, read-out: beta t1/2 (converted)
[25] = Oral bioavailability in CB17/ICR-Prkdc SCID mouse at 10 mg/kg; type: ADME, organism-based; settings: in vivo
Mus musculus [26] = assay: Inhibition of Akt phosphorylation at T308 residue in plasma of po dosed SCID mouse bearing human PTEN-deficient PC3 cells administered BID; type: functional, organism-based; settings: PC-3, Plasma
[27] = Drug uptake in tumor of SCID mouse xenografted with PTEN-deficient human PC3 cells at 300 mg/kg, po BID measured after 1 hr; type: ADME, organism-based, Neoplasm, PC-3; design: dose 300 mg/kg, route oral; settings: read-out: Drug uptake
[28] = Drug uptake in tumor of SCID mouse xenografted with PTEN-deficient human PC3 cells at 300 mg/kg, po BID measured after 3 hrs; type: ADME, organism-based, Neoplasm, PC-3; design: dose 300 mg/kg, route oral; settings: read-out: Drug uptake
[29] = Drug uptake in tumor of SCID mouse xenografted with PTEN-deficient human PC3 cells at 300 mg/kg, po BID measured after 6 hrs; type: ADME, organism-based, Neoplasm, PC-3; design: dose 300 mg/kg, route oral; settings: read-out: Drug uptake
[30] = Drug uptake in tumor of SCID mouse xenografted with PTEN-deficient human PC3 cells at 300 mg/kg, po BID measured after 24 hrs; type: ADME, organism-based, Neoplasm, PC-3; design: dose 300 mg/kg, route oral; settings: read-out: Drug uptake

- concentration at 3 h [1]: 8 µM
- concentration at 6 h [2]: 11 µM
- Ratio (Nucleic Acid): 1
- Drug uptake (Plasma): Active
- IC50 [5]: 0.076 µM
- IC50 [6]: > 10 µM
- IC50 [7]: 0.099 µM
- IC50 [8]: > 10 µM
- IC50 [9]: > 10 µM
- IC50 [10]: 0.076 µM
- IC50 [11]: 0.188 µM
- metabolised [12]: 27%
- metabolised [13]: 13%
- IC50 [14]: > 10 µM
- IC50 [15]: > 10 µM
- C0 [16]: 4.87 µg/mL
- AUC(0-t) [17]: 1.95 µg·h/mL
- AUC(0-inf) [18]: 1.95 µg·h/mL
- clearance [19]: 3.1 L/h/kg
- Cmax [20]: 0.641 µg/mL
- Tmax [21]: 0.5 h
- AUC(0-t) [22]: 0.846 µg·h/mL
- Tlast (Mus musculus [23]): 24 h
- half-life [24]: 3.9 h
- bioavailability [25]: 26%
- EC50 (Mus musculus [26]): 1.6 µM
- concentration at 1 h [27]: 16 µM
- concentration at 3 h [28]: 6 µM
- concentration at 6 h [29]: 3.6 µM
- concentration at 24 h [30]: 0.7 µM
Structure (SMILES): Cn1c(Cc2nc(N3CCOCC3)cc(=O)[nH]2)nc2ccccc21
- Activity (Mus musculus [3]): Non-toxic
- Activity (Mus musculus [4]): Non-toxic
